ChEMBL document CHEMBL1949615, “Dual β2-adrenoceptor agonists-PDE4 inhibitors for the treatment of asthma and COPD” (Bioorg Med Chem Lett, 2012)
pEC50, pIC50: −log10 of the molar value. Activity calls are given as the source filed them. The rule behind the calls is not given here.

Assays:
[1] = target: T1, Beta-2 adrenergic receptor (Cavia porcellus, UniProt Q8K4Z4); assay: Agonist activity at beta2 adrenoceptor in guinea pig assessed as relaxation of histamine-induced tracheal ring contraction; assay type: functional, tissue-based, Trachea
T1 sequence (Q8K4Z4 whole entry): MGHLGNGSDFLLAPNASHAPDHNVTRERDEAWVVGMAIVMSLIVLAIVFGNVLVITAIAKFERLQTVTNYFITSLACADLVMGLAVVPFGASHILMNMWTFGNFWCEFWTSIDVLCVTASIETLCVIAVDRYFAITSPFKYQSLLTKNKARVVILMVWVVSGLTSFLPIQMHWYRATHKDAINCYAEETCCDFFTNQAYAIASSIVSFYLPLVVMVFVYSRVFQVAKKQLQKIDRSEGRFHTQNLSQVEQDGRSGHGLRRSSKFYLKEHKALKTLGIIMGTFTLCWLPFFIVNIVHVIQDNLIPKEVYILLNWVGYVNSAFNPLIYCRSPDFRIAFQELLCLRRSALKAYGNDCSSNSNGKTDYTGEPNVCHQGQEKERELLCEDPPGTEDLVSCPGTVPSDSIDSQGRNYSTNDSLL

[2] = target: 3',5'-cyclic-AMP phosphodiesterase 4B (Homo sapiens, UniProt Q07343); assay: Inhibition of human recombinant PDE4B2-mediated cAMP hydrolysis for 30 mins by colorimetric assay
Sequence of 3',5'-cyclic-AMP phosphodiesterase 4B (Q07343 whole entry): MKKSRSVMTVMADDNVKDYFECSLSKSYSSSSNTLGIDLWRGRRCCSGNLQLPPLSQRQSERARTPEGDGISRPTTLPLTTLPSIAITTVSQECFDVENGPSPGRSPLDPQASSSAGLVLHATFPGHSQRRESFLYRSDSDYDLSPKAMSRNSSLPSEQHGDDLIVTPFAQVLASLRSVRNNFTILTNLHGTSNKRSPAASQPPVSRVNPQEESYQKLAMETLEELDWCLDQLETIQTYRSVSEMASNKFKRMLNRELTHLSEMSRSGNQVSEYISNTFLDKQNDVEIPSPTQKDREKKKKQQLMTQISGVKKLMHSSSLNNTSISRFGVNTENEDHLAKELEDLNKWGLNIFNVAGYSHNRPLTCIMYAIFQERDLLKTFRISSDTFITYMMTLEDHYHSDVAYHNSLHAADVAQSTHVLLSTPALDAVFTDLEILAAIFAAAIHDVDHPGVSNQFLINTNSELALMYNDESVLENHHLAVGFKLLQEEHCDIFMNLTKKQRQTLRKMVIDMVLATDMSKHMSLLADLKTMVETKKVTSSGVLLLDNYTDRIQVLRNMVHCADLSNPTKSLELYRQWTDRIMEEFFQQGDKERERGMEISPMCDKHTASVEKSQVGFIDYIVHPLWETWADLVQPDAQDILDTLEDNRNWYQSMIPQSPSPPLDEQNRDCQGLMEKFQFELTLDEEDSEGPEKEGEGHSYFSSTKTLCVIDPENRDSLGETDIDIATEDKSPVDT

[3] = target: T1, Beta-2 adrenergic receptor; assay: Competitive antagonist activity at beta2-adrenoceptor in guinea pig tracheal ring in the presence of N-(5-((1R)-2-(4-(4-(3,4-[…])-1-oxo-4a,5,6,7,8,8a-hexahydrophthalazin-2(1H)-yl)butylamino-1-hydroxyethyl)-2-hydroxyphenyl)formamide; assay type: functional; settings: read-out: pA2 (converted)
[4] = target: Beta-2 adrenergic receptor (Cavia porcellus) (UniProt Q8K4Z4); assay: Agonist activity at beta2 adrenoceptor in guinea pig assessed as relaxation of histamine-induced tracheal ring contraction in the presence of inverse agonist ICI-118551; assay type: functional, tissue-based; settings: Trachea
Sequence of Beta-2 adrenergic receptor (Cavia porcellus) (Q8K4Z4 whole entry, looked up): as the sequence (Q8K4Z4 whole entry) above

[5] = Inhibition of PDE4

Row | pEC50 [1] | pIC50 [2] | Kb [3] [nM] | Activity [4] | pIC50 [5] | Structure (SMILES)
1 | 7.70 | 6.55 | – | – | – | COc1ccc(C2=NN(CCNCC(O)c3ccc(O)c(NC=O)c3)C(=O)C3CCCCC23)cc1OC (stereo not drawn)
2 | 10.00 | 6.58 | 0.708 | inactive | – | COc1ccc(C2=NN(CCCCNC[C@H](O)c3ccc(O)c(NC=O)c3)C(=O)C3CCCCC23)cc1OC (stereo partly drawn)
3 | 7.30 | 6.60 | – | – | – | COc1ccc(C2=NN(CCCCCCNCC(O)c3ccc(O)c(NC=O)c3)C(=O)C3CCCCC23)cc1OC (stereo not drawn)
4 | – | – | – | – | 7.02 | COc1ccc([C@]2(C#N)CC[C@@H](C(=O)O)CC2)cc1OC1CCCC1 [CILOMILAST]
5 | 7.70 | 6.59 | – | – | – | COc1ccc(C2=NN(CCCCCNCC(O)c3ccc(O)c(NC=O)c3)C(=O)C3CCCCC23)cc1OC (stereo not drawn)
6 | 9.30 | 6.56 | – | – | – | COc1ccc(C2=NN(CCCCNCC(O)c3ccc(O)c(NC=O)c3)C(=O)C3CCCCC23)cc1OC (racemic)
7 | 7.50 | – | – | – | – | CC(C)NCC(O)c1ccc(O)c(O)c1 (stereo not drawn) [ISOPROTERENOL]
8 | – | 6.28 | – | – | – | O=c1[nH]ncc2ccccc12 [PHTHALAZINONE]
9 | – | 6.28 | – | – | – | COc1ccc(C2=NNC(=O)C3CCCCC23)cc1OC (stereo not drawn)
10 | 6.90 | 6.55 | – | – | – | COc1ccc(C2=NN(CCCCNC[C@@H](O)c3ccc(O)c(NC=O)c3)C(=O)C3CCCCC23)cc1OC (stereo partly drawn)
